Measurements: PubChem BioAssay (NCI)
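How tested: cells in 96-well plates exposed to compound for 48 hours at five concentrations. TGI is the concentration that stops growth completely.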

Legend:
Assay in all cases: NCI tumour cell line growth inhibition, 48 h
786-0 renal = system: 786-0 renal
A549 NSCLC = system: A549 NSCLC
ACHN renal = system: ACHN renal
BT-549 breast = system: BT-549 breast
CAKI-1 renal = system: CAKI-1 renal
CCRF-CEM leukemia = system: CCRF-CEM leukemia
COLO 205 colon = system: COLO 205 colon
DU-145 prostate = system: DU-145 prostate
EKVX NSCLC = system: EKVX NSCLC
HCC-2998 colon = system: HCC-2998 colon
HCT-116 colon = system: HCT-116 colon
HCT-15 colon = system: HCT-15 colon
HL-60(TB) leukemia = system: HL-60(TB) leukemia
HOP-62 NSCLC = system: HOP-62 NSCLC
HOP-92 NSCLC = system: HOP-92 NSCLC
HS 578T breast = system: HS 578T breast
HT29 colon = system: HT29 colon
IGROV1 ovarian = system: IGROV1 ovarian
K-562 leukemia = system: K-562 leukemia
KM12 colon = system: KM12 colon
LOX IMVI melanoma = system: LOX IMVI melanoma
M14 melanoma = system: M14 melanoma
MALME-3M melanoma = system: MALME-3M melanoma
MCF7 breast = system: MCF7 breast
MDA-MB-231 breast = system: MDA-MB-231 breast
MDA-MB-435 = system: MDA-MB-435
MDA-N = system: MDA-N
MOLT-4 leukemia = system: MOLT-4 leukemia
NCI-H226 lung = system: NCI-H226 lung
NCI-H23 lung = system: NCI-H23 lung
NCI-H460 lung = system: NCI-H460 lung
NCI-H522 lung = system: NCI-H522 lung
NCI/ADR-RES ovarian = system: NCI/ADR-RES ovarian
OVCAR-3 ovarian = system: OVCAR-3 ovarian
OVCAR-4 ovarian = system: OVCAR-4 ovarian
OVCAR-5 ovarian = system: OVCAR-5 ovarian
OVCAR-8 ovarian = system: OVCAR-8 ovarian
PC-3 prostate = system: PC-3 prostate
RPMI-8226 leukemia = system: RPMI-8226 leukemia
RXF 393 renal = system: RXF 393 renal
SF-268 CNS = system: SF-268 CNS
SF-295 CNS = system: SF-295 CNS
SF-539 CNS = system: SF-539 CNS
SK-MEL-2 melanoma = system: SK-MEL-2 melanoma
SK-MEL-28 melanoma = system: SK-MEL-28 melanoma
SK-MEL-5 melanoma = system: SK-MEL-5 melanoma
SK-OV-3 ovarian = system: SK-OV-3 ovarian
SN12C renal = system: SN12C renal
SNB-19 CNS = system: SNB-19 CNS
SR leukemia = system: SR leukemia
SW-620 colon = system: SW-620 colon
TK-10 renal = system: TK-10 renal
U251 CNS = system: U251 CNS
UACC-257 melanoma = system: UACC-257 melanoma
UACC-62 melanoma = system: UACC-62 melanoma
UO-31 renal = system: UO-31 renal

With `CC(CCOc1c2ccoc2cc2oc(=O)ccc12)C1=CC(=O)C(C)(C)O1` (stereo unspecified) the TGI (786-0 renal) was > 100 µM, the TGI (A549 NSCLC) was > 100 µM and the TGI (ACHN renal) was > 100 µM. For the same compound, the TGI (BT-549 breast) was > 100 µM, the TGI (CAKI-1 renal) was > 100 µM and the TGI (CCRF-CEM leukemia) was > 100 µM. The TGI (COLO 205 colon) was > 100 µM, the TGI (DU-145 prostate) was > 100 µM and the TGI (EKVX NSCLC) was > 100 µM. The TGI (HCC-2998 colon) was > 100 µM, the TGI (HCT-116 colon) was > 100 µM and the TGI (HCT-15 colon) was > 100 µM. The TGI (HL-60(TB) leukemia) was > 100 µM, the TGI (HOP-62 NSCLC) was > 100 µM and the TGI (HOP-92 NSCLC) was > 100 µM. For the same compound, the TGI (HS 578T breast) was > 100 µM, the TGI (HT29 colon) was > 100 µM and the TGI (IGROV1 ovarian) was > 100 µM. For the same compound, the TGI (K-562 leukemia) was > 100 µM, the TGI (KM12 colon) was > 100 µM and the TGI (LOX IMVI melanoma) was > 100 µM. For the same compound, the TGI (M14 melanoma) was > 100 µM, the TGI (MALME-3M melanoma) was > 100 µM and the TGI (MCF7 breast) was > 100 µM. For the same compound, the TGI (MDA-MB-231 breast) was > 100 µM, the TGI (MDA-MB-435) was > 100 µM and the TGI (MDA-N) was > 100 µM. For the same compound, the TGI (MOLT-4 leukemia) was > 100 µM, the TGI (NCI-H226 lung) was > 100 µM and the TGI (NCI-H23 lung) was > 100 µM. For the same compound, the TGI (NCI-H460 lung) was > 100 µM, the TGI (NCI-H522 lung) was 71.3 µM and the TGI (NCI/ADR-RES ovarian) was > 100 µM. The TGI (OVCAR-3 ovarian) was > 100 µM, the TGI (OVCAR-4 ovarian) was > 100 µM and the TGI (OVCAR-5 ovarian) was > 100 µM. The TGI (OVCAR-8 ovarian) was > 100 µM, the TGI (PC-3 prostate) was > 100 µM and the TGI (RPMI-8226 leukemia) was > 100 µM. For the same compound, the TGI (RXF 393 renal) was > 100 µM, the TGI (SF-268 CNS) was > 100 µM and the TGI (SF-295 CNS) was > 100 µM. For the same compound, the TGI (SF-539 CNS) was > 100 µM, the TGI (SK-MEL-2 melanoma) was > 100 µM and the TGI (SK-MEL-28 melanoma) was > 100 µM. For the same compound, the TGI (SK-MEL-5 melanoma) was > 100 µM, the TGI (SK-OV-3 ovarian) was > 100 µM and the TGI (SN12C renal) was > 100 µM. The TGI (SNB-19 CNS) was > 100 µM, the TGI (SR leukemia) was > 100 µM and the TGI (SW-620 colon) was > 100 µM. The TGI (TK-10 renal) was > 100 µM, the TGI (U251 CNS) was > 100 µM and the TGI (UACC-257 melanoma) was > 100 µM. For the same compound, the TGI (UACC-62 melanoma) was > 100 µM and the TGI (UO-31 renal) was > 100 µM.
